{"source": "patent US20190008864A1", "about": "“PHARMACEUTICAL COMPOSITION CONTAINING GPR119 LIGAND AS EFFECTIVE INGREDIENT FOR PREVENTING OR TREATING NON-ALCOHOLIC STEATOHEPATITIS” (PHARMEDIX.CO., LTD., priority 2014, published 2019)", "key": {"[1]": {"test_system": "fatty liver model induced by a high-fat diet", "test": "Fatty liver model induced by high-fat diet", "assay_type": "in vivo, C57BL/6J mice", "from_the_text": "In the present invention, a high fat diet (HFD: 60% fat calories, Research diets, D12492, US) was used as an obesity induction diet.\nSix-week-old male C57BL/6J mice (Central Lab. Animal Inc., Seoul, Korea) were acclimated to an experimental environment for one week while being fed solid food, and then randomly divided into a control group and an experimental group for a high-fat diet using a randomized block design. The animal groups were fed for 12 weeks, and thus, fatty liver animal models were established. Fatty liver development was determined according to blood biochemical and histochemical analysis methods. The mice were orally fed with the high-fat diet only for six weeks, and in combination with a GPR119 ligand (10 mg/kg) suspended in 40% PEG400 once a day for five days every week. Choline-deficient, amino acid-fixed high-fat diet steatohepatitis models were prepared by feeding six-week-old male C57BL/6J mice (Central Lab. Animal Inc., Seoul) with a diet containing 60 kcal fat and 0.1% methionine for four weeks. After terminating the experiment, experimental animals fasted for 12 hours or more. Subsequently, blood, liver, and adipose tissues in intestines (epididymal fat, kidney-surrounding fat) were collected from the animals that had been anesthetized with diethyl ether and then washed with a 0.1 M phosphate buffered saline (pH 7.4), followed by being weighed. Blood collected from abdominal aortas was centrifuged at 3000 rpm for 20 minutes using SST tubes to separate serum.\nA total cholesterol concentration and a total glucose concentration in serum from each of the aforementioned experimental animals raised for 12 weeks were measured as follows. Each of the total cholesterol concentration and the total glucose concentration in serum was measured twice by means of a commercial measurement kit (Bio Clinical Systems). The amount of alanine aminotransferase (ALT) in blood used as a liver function index was measured by means of a commercial analysis kit (Bio Clinical Systems, Korea).\nThe collected liver tissues were fixed with a 10% neutral formalin solution and then subjected to a common fixation procedure and dehydration process, followed by embedding the same in paraffin. The embedded tissues were sectioned to a thickness of 4 μm and stained with H&E. The stained tissues were observed by means of an optical microscope.\nA predetermined amount of each of the liver tissues was homogenized in liquid nitrogen and a cell lysis buffer in a mortar, and then a lysed tissue solution was transferred to a new tube, followed by vortexing. […] A middle layer of the centrifuged solution was collected and then subjected to protein quantification by the Bradford assay. […] Expression changes of FAS and SREBP-1c proteins were measured by western blotting. […]"}, "MCP-1 mRNA": {"test_system": "MCP-1 mRNA", "test": "MCP-1 mRNA after LPS stimulation in RAW264.7 cells (real time PCR)", "assay_type": "cell-based, mouse", "settings": "RAW264.7, 3 μM, 10 ng/ml LPS, 6 hours", "method": "(§1) RAW264.7 cells cultured in 6-well plates were stabilized for 12 hours in a serum-free medium, and then exposed to 3 μM of MBX-2982 and 10 ng/ml of LPS. After 6 hours, RNA samples extracted with TRIZOL were reversely transcribed using a cDNA synthesis PCR kit to synthesize cDNAs. The cDNAs obtained through reverse transcription were used as a template, and primers for 5′ and 3′ flanking sequences of cDNAs to be amplified were as follows. Real time PCR (Mini-Opticon, Bio-Rad, US) was carried out and the expression levels of mRNA were investigated.\n(§2) Inflammatory marker change results evaluated after LPS stimulation for RAW264.7 cells, which were derived from a mouse macrophage cell line, are illustrated in FIG. 18."}, "iNOS protein": {"test_system": "iNOS protein", "test": "iNOS protein expression after LPS stimulation in RAW264.7 cells (western blot)", "assay_type": "cell-based, mouse", "settings": "RAW264.7, 3 μM, 10 ng/ml LPS, 6 hours", "method": "RAW264.7 cells cultured in 6-well plates were stabilized for 12 hours in a serum-free medium, and then exposed to 3 μM of MBX-2982 and 10 ng/ml of LPS. After 6 hours, the cells were lysed in cytolysis buffer and voltexed. Centrifugation was conducted at 14,000 rpm and 4° C. for 20 minutes. A supernatant of the centrifuged solution was collected and then subjected to protein quantification by the Bradford assay. 15 μg of a protein thereof was electrophoresed on an SDS polyacrylamide gel, and then expression changes of iNOS and COX-2 proteins were measured by western blotting. Expression changes in triplicate experiments were measured with a densitometer and are shown as graphs.\nAs described above, RAW264.7 cells, which were derived from a mouse macrophage cell line, was subjected to LPS stimulation, and then inflammatory marker changes therein were evaluated. Results are illustrated in FIG. 17."}, "[2]": {"test_system": "mouse liver tissue and hepatocyte line", "test": "Summary statement: mouse liver tissue and hepatocyte line treated with the two GPR119 ligands", "assay_type": "cell-based"}, "TNF-alpha mRNA": {"test_system": "TNF-alpha mRNA", "test": "TNF-alpha mRNA after LPS stimulation in RAW264.7 cells (real time PCR)", "assay_type": "cell-based, mouse", "settings": "RAW264.7, 3 μM, 10 ng/ml LPS, 6 hours", "method": "as §1, §2"}}}
{"compound": "CCc1cnc(N2CCC(c3nc(COc4ccc(-n5cnnn5)cc4)cs3)CC2)nc1", "note": "[MBX2982, 4-((4-(1H-tetrazol-1-yl)phenoxy)methyl)-2-(1-(5-ethylpyrimidin-2-yl)piperidin-4-yl)thiazole]", "values": [{"measurement": "fatty liver development", "setting": "[1]; animal models fed with a high-fat diet", "result": "completely inhibited"}, {"measurement": "fat weight in the tissue", "setting": "[1]; high-fat diet mice, 10 mg/kg oral", "result": "significantly decreased"}, {"measurement": "mRNA level of GPR119 in liver", "setting": "[1]; mice administered ligand, compared to a control group", "result": "seven-fold increased"}, {"measurement": "expression of MCP-1 mRNA", "setting": "MCP-1 mRNA", "result": "decreased"}, {"measurement": "expression of iNOS protein", "setting": "iNOS protein", "result": "decreased"}, {"measurement": "activity of SREBP-1c", "setting": "[2]", "result": "inhibited"}, {"measurement": "expression of GPR119", "setting": "[2]", "result": "increased"}, {"measurement": "expression of acetyl CoA carboxylase (ACC)", "setting": "[2]", "result": "inhibited"}, {"measurement": "expression of fatty acid synthase (FAS)", "setting": "[2]", "result": "inhibited"}, {"measurement": "expression of stearoyl-CoA desaturase (SCD)", "setting": "[2]", "result": "inhibited"}, {"measurement": "expression of TNF-alpha mRNA", "setting": "TNF-alpha mRNA", "result": "decreased"}]}
